Ends that are not written are not given here.

For one test, the system named is αVβ3. The conditions noted are these: ref [32]; cited from earlier work. The source says: (§1) In this study, we started to move towards a functional investigation of the role of VTN(381–397 a.a.) in OA. VTN is known to interact with integrin receptors by its RGD motif, which is positioned far upstream from VTN(381–397 a.a.) on the N-terminal end of VTN. However, Maile and colleagues also previously described a second integrin-binding site located within the HBD between amino acids 365 and 381[32],[33]. […] Considering that the fragment VTN(381–397 ...

The test system of another test is β3 phosphorylation. The conditions noted are these: through binding to αVβ3; ref [32]; cited from earlier work.
Description: as §1

The target of the next test is T1, integrin αVβ6 (Homo sapiens, UniProt P06756+P18564).
T1 construct: purchased R&D System; Minneapolis, MN, USA
As to the kind of experiment: Competition study, 125ISIB-echistatin vs ligands on coated αVβ6. The class given is binding. The conditions noted are these: competition with 125ISIB-echistatin on α5β1, αVβ1, αVβ3, αVβ5, αVβ6. As for the experimental part:
A competition study was performed to investigate the interaction of VTN(381–397 a.a.) with five different integrins. Radiolabeled echistatin, a disintegrin known to bind integrin receptors, was used as a tracer for the binding assays. Lyophilized echistatin was provided by Bachem (Bubendorf, Switzerland) and radiolabeled by conjugation with a radioiodinated benzoate (^125ISIB) to the epsilon amino group of lysine side chains. For the five integrins, α5β1, αVβ1, αVβ3, αVβ5, and αVβ6 (R&D System; Minneapolis, MN, USA), a solution at 1.8 µg/mL was prepared with integrin-binding buffer (IBB; 20 mM Tris pH 7.4, 150 mM NaCl, 2 mM CaCl2, 1 mM MgCl2, 1 mM MnCl2). Nunc Maxisorp Module plates were coated overnight at 4 °C with integrin complex at 1.8 µg/mL. After the wells were washed with sample buffer (IBB, 0.5% BSA), blocking solution (IBB, 2% BSA) was added, and the microplate was incubated for 2 h at room temperature. The wells were then washed three times with IBB/0.5% BSA. Then, ^125ISIB-echistatin was diluted in sample buffer to fixed concentrations of 4, 4, 8, 8, and 20 nM for α5β1, αVβ1, αVβ3, αVβ5, and αVβ6 competition studies, respectively. The ^125ISIB-echistatin was mixed with sample buffer at a ratio of 1:1 (total binding = control well) or with increasing concentrations of ligands (Supplementary information SI1) [complete VTN, VTN(381–397 a.a.), VTN(365–381 a.a.)] at a ratio 1:1 and added to wells in duplicate. We used 1,4,7-triazacyclononane-1,4,7-triacetic acid (NOTA) as a negative control. […] After rinsing, bound radioactivity was quantified using a gamma counter. The percentage of relative binding of radiolabeled echistatin was calculated as follows: radioactivity in the test well*100/radioactivity in the reference well. […] For comparison of the potency of ligands in inhibiting bound ^125ISIB-echistatin for different integrin complexes, the half-maximal inhibitory concentration (IC50) was calculated. The IC50 value was determined by constructing a dose–response curve and examining the effect of different concentrations of ligands on ^125ISIB-echistatin binding. […]
To determine if VTN(381–397 a.a.) could interact with integrins, we investigated its ability to compete with radiolabeled echistatin for binding to five different integrin complexes: α5β1, αVβ1, αVβ3, αVβ5 and αVβ6. […] First, the binding affinity of echistatin to the five integrins was measured by determining the equilibrium dissociation constant (KD). […] The fixed concentration of radiolabeled echistatin was determined according to its KD value. For each ligand concentration, the relative binding of ^125ISIB-echistatin to coated integrins was then measured, and values were plotted versus the logarithm of ligand concentration.

Test [1] relates to β6 integrin subunit expression, human fibroblast-like synoviocytes (FLSs). Briefly: β6 subunit expression in FLSs by western blot after stimulation. In kind it is cell-based. The note with it: TGF-β1 10 ng/mL, 3 or 7 days, n = 12, OA FLSs, western blot normalized to GAPDH, paired Wilcoxon, p-value ≤ 0.01. As for the experimental part:
Synovial membranes were obtained from 22 OA patients (14 females, 8 males; mean age 69.8 ± 9.6 years, BMI 30.9 ± 6.8) during knee replacement, and primary synovial fibroblasts were isolated as explained previously. The research ethics committee of CHU de Liege (Belgium) approved the study, and the patient gave informed consent to allow research procedures on samples. Human fibroblast-like synoviocytes (FLSs) were then cultured in DMEM supplemented with 10% FBS, 1% Pen/Strep, and 1% L-glutamine (all from Lonza; Basel, Switzerland) at 37 °C in an atmosphere of 5% CO2. In a plate, 5 × 10^4 FLSs were stimulated with different compounds to analyze the modulation of αVβ6: (i) TGF-β1, TNF-α, IL-1β, or IL-6 were used for 3 or 7 days at a concentration of 10 ng/mL; (ii) among the danger-associated molecular patterns, high-mobility group box 1 (HMGB1) was tested at 10, 50, and 100 ng/mL for 3 days, while S100A9 and S100A12 were tested at 100 and 200 ng/mL for 3 days or 24 h; (iii) advanced glycation end product (AGE-BSA) was tested at 50, 100, and 200 μg/mL for 3 days or 24 h; (iv) prednisolone and dexamethasone were used at 1 μM for 3 or 7 days; and (v) menadione or H2O2 was used to induce oxidative stress at 25–50–100 μM (3 h) and 100–200–400 μM (2 h), respectively, without FBS in the medium.
The expression of αV and β6 subunits and α-SMA in FLSs was evaluated by western blot analysis. Cells were scraped from plates and lysed with lysis buffer (25 mM HEPES, 150 mM NaCl, 0.5% Triton, 10% glycerol, 1 mM dithiothreitol) containing phosphatase inhibitors (25 mM β-glycerophosphate, 1 mM Na3VO4, and 1 mM NaF) and complete protease inhibitor mixture (Roche Applied Science; Penzberg, Germany). Total proteins were separated by 10% SDS–PAGE gels (12% for α-SMA) and transferred onto PVDF membranes. The membranes were then incubated with anti-αV polyclonal antibody (1:250 dilution) (Cell Signaling Technology; Boston, MA, USA), anti-β6 polyclonal antibody (1:1000 dilution) (Abcam; Cambridge, UK) or anti-α-SMA monoclonal antibody (Agilent; Santa Clara, CA, USA; 1:1000 dilution). HRP-conjugated anti-rabbit antibody (1:1000 dilution) (Cell Signaling Technology) was used as the secondary antibody. Immunoblots were developed using the ECL chemiluminescent detection system. Rabbit anti-glyceraldehyde 3-phosphate dehydrogenase (GAPDH) (Merck) or rabbit anti-heat shock protein 90 (Hsp90; Santa Cruz) was used as loading controls at a dilution of 1:10,000 or 1:200, respectively. Values of optical intensity were normalized to GAPDH or Hsp90 levels. Data were analyzed by paired Wilcoxon test; a p-value < 0.05 was considered statistically significant. Statistical analysis was performed with GraphPad Prism 6 software (San Diego, CA, USA).
IL-1β 10 ng/mL 3 days IL-6 10 ng/mL 3 daysIL-6 Prednisolone 1µM 3 daysPrednisolone
0.0 control IL-6 0.0 control PRE
Dexamethasone 1µM 3 daysDexamethasone TNF-α 10 ng/mL 3 days AGE 50 µg/mL 24 h
(A western blot detects proteins with antibodies after separation by electrophoresis.)

A further test relates to α-SMA in human FLSs. Briefly: Expression of α-SMA in FLSs by western blot. The note with it: TGF-β1 10 ng/mL, 7 days, OA FLSs (n = 5), western blot normalized to Hsp90. In kind it is cell-based. Here is the method:
Finally, for analysis of the expression of α-SMA, FLSs (n = 5) were stimulated with VTN(381–397 a.a.) (10, 25, 50, 100 ng/mL) with or without TGF-β1 (10 ng/mL) for 7 days.
The expression of αV and β6 subunits and α-SMA in FLSs was evaluated by western blot analysis. Cells were scraped from plates and lysed with lysis buffer (25 mM HEPES, 150 mM NaCl, 0.5% Triton, 10% glycerol, 1 mM dithiothreitol) containing phosphatase inhibitors (25 mM β-glycerophosphate, 1 mM Na3VO4, and 1 mM NaF) and complete protease inhibitor mixture (Roche Applied Science; Penzberg, Germany). Total proteins were separated by 10% SDS–PAGE gels (12% for α-SMA) and transferred onto PVDF membranes. The membranes were then incubated with anti-αV polyclonal antibody (1:250 dilution) (Cell Signaling Technology; Boston, MA, USA), anti-β6 polyclonal antibody (1:1000 dilution) (Abcam; Cambridge, UK) or anti-α-SMA monoclonal antibody (Agilent; Santa Clara, CA, USA; 1:1000 dilution). […] Data were analyzed by paired Wilcoxon test; a p-value < 0.05 was considered statistically significant. […]
FLSs were stimulated with VTN(381–397 a.a.) with or without TGF-β1 to evaluate the effect on the expression of the fibrotic marker α-SMA (Fig. 5). […] The results in Fig. 5 are expressed as the ratio of the normalized optical density vs. the control and are shown as the mean (±SEM).

T1 sequence (P06756 31-992 limits assumed): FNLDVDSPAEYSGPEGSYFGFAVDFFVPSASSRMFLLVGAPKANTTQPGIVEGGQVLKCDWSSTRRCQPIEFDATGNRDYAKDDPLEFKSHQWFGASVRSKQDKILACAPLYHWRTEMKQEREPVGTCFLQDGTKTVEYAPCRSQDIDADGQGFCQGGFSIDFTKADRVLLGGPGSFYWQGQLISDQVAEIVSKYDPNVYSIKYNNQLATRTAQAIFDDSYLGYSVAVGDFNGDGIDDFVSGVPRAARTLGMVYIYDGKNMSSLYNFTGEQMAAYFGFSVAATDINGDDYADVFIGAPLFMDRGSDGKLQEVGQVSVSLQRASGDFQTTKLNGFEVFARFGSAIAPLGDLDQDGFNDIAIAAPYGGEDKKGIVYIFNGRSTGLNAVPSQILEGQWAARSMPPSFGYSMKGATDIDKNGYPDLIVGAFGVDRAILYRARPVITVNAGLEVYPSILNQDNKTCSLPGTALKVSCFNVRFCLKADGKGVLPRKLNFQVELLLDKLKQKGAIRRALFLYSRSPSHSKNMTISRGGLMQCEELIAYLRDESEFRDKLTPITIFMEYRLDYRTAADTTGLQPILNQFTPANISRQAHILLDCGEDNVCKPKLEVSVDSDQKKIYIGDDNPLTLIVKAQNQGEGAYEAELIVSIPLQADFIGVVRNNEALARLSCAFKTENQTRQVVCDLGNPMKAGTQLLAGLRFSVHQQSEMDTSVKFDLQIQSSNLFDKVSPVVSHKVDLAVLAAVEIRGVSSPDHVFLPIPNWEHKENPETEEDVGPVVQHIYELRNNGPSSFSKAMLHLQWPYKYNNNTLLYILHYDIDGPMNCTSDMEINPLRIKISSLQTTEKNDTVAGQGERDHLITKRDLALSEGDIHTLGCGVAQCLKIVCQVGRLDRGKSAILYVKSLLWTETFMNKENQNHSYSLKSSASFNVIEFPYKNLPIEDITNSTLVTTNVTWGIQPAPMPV
T1 sequence (P18564 22-707 limits assumed): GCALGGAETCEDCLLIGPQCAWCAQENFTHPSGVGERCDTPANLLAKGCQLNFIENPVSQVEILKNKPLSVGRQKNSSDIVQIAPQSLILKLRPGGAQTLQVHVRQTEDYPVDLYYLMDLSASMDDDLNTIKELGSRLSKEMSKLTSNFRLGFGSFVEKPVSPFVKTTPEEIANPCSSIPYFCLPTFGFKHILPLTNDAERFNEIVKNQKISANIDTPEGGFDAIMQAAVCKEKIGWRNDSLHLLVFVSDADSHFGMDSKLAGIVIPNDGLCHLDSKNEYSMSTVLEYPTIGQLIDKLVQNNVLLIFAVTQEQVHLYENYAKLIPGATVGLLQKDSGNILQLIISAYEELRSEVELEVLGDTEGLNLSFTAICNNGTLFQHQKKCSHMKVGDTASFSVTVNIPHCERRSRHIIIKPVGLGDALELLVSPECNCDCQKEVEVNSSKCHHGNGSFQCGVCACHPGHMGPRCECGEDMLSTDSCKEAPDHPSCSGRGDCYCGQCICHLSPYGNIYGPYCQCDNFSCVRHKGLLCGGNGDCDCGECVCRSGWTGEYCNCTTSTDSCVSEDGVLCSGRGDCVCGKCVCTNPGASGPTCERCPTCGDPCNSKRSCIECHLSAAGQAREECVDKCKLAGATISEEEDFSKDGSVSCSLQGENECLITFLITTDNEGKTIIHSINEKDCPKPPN

On to LAKKQRFRHRNRKGYRS [VTN(365–381 a.a.)], for which the “interaction with αVβ3” value in the test with αVβ3 is on record as “could interact with αVβ3”. For the same substance, the “effect on β3 phosphorylation” value with β3 phosphorylation was “its binding was sufficient to enhance β3 phosphorylation”. Also, on integrin αVβ6, the “integrin binding specificity” value is given as “only showed a high affinity for integrin αVβ6”.
Turning to TGF-β1: profibrotic mediator, the “effect on β6 subunit expression” value in test [1] is “significantly increased β6 expression”. In the test with α-SMA in human FLSs, the “effect on α-SMA” value is reported as “upregulated the content of the fibrotic marker α-SMA”.

The record behind these values is PMC8080589, “Modulation of αVβ6 integrin in osteoarthritis-related synovitis and the interaction with VTN(381–397 a.a.) competing for TGF-β1 activation” (Experimental & Molecular Medicine, 2021).
